# Results from US5801270A, “Amine derivative and detergent composition containing the same” (Kao Corporation, priority 1993, dated 1998).
# Tests used:
# [1] = Irritativeness and feeling of the compound on the user's skin and hair; details: in words
# SIRC cells = test: Cytotoxic effect on SIRC cells (Giemsa stain, 48 hours); assay type: cell-based, rabbit; details: 48 hours culture, 655 nm
# Description: (§1) The cytotoxic effect of the compounds according to the present invention was tested in accordance with the following method.
# (§2) Four days prior to exposure to a substance to be tested, SIRC cells (established cell line of fibroblasts in the epithelial parenchymal layer of a rabbit eye) were disseminated on a 96-well plate in a concentration of 3×10^3 cells/well to culture them under conditions of 37° C. and 5% CO2.
# (§3) The test substance was dissolved in physiological saline to give a concentration of 1 wt. % or 10 wt. %. This solution was diluted with a culture medium. After the thus-obtained test solution was added to the culture solution to conduct culture for 48 hours, the culture solution was washed twice with PBS (pH 7.4) and fixed in methanol to stain with a Giemsa stain. After washing and drying, a mixture of 1N HCl/ethanol (1/9) was added to extract the stained solution, followed by measurement by means of a microplate reader (655 nm). The concentration at which […] was expressed as IC50 (ppm).
# [2] = as above; assay type: cell-based, rabbit; details: rabbit, 48 hours culture, 655 nm, read-out: IC50
# Description: as §1, §2, §3
compound,measurement,setting,value
CCCCCCCCN(CC(O)CN(CCCCCCCC)C(=O)CC(C(=O)O)S(=O)(=O)[O-])CC(O)CN(CCCCCCCC)C(=O)CC(C(=O)O)S(=O)(=O)[O-].[Na+].[Na+] (stereo not drawn),irritativeness,[1],low
"CCCCCCCCN(CC(=O)O)CC(O)CN(CCCC)CC(O)CN(CCCCCCCC)CC(=O)O (stereo not drawn) [Example 8, 6-butyl-4,8-dihydroxy-2,10-dioctyl-2,6,10-triaza-1,11-undecanedicarboxylicacid]",irritativeness,[1],low
"CCCCCCCCCCCCN(CCOS(=O)(=O)O)CC(CN(CCCCCCCCCCCC)CC(CN(CCCCCCCCCCCC)CC(CN(CCCCCCCCCCCC)CC(CN(CCCCCCCCCCCC)CCOS(=O)(=O)O)OS(=O)(=O)O)OS(=O)(=O)O)OS(=O)(=O)O)OS(=O)(=O)O (stereo not drawn) [Example 11, sodium 3,7,11,15,19-pentadodecyl-3,7,11,15,19-pentaaza-1,5,9,13,17,21-heneicosanehexasulfate]",irritativeness,[1],low
same,IC50,SIRC cells,> 1000 ppm
CCCCCCCCN(CC(O)CN(CCCCCCCC)C(=O)CCC(=O)[O-])CC(O)CN(CCCCCCCC)C(=O)CCC(=O)[O-].[Na+].[Na+] (stereo not drawn),irritativeness,[1],low
"CCCCCCCCCCCCOS(=O)(=O)[O-].[Na+] [Sodium dodecyl sulfate, reference compound]",CC50 at 48 h,[2],82 µg/mL
"6-butyl-4,8-dihydroxy-2,10-dioctyl-2,6,10-triaza-1,1,11,11-undecanetetracarboxylic acid [Example 12]",irritativeness,[1],low
"CCCCCCCCCCCCN(CCOS(=O)(=O)O)CC(CN(CCCCCCCCCCCC)CC(CN(CCCCCCCCCCCC)CCOS(=O)(=O)O)OS(=O)(=O)O)OS(=O)(=O)O (stereo not drawn) [Example 10, sodium 3,7,11-tridodecyl-3,7,11-triaza-1,5,9,13-tridecanetetrasulfate]",irritativeness,[1],low
same,CC50 at 48 h,[2],790 µg/mL
